Reference: ChEMBL document CHEMBL5214890 (Eur J Med Chem, 2021)
The source made the active and inactive calls. The calls are words filed in the database; no cut-off is given here.

Key:
[1] = biological target: Glucagon-like peptide 1 receptor (Homo sapiens, UniProt P43220); experiment: Agonist activity at human GLP-1R expressed in HEK293 cells incubated for 30 mins and assessed as increase in cAMP accumulation measured by HTRF assay relative to control; type: functional, cell-based; design: concentration or dose not given beside the values; settings: filed as agonist
Glucagon receptor = Glucagon receptor (Homo sapiens, UniProt P47871); experiment: Agonist activity at human GCGR expressed in HEK293 cells incubated for 30 mins and assessed as increase in cAMP accumulation measured by HTRF assay; type: functional, cell-based
Mus musculus [2] = experiment: Antidiabetic activity in DIO mouse assessed as reduction in blood glucose at 10 nmol/kg, ip pretreated with compound and followed by glucose challenge and measured by oral glucose tolerance test; type: functional, organism-based
Mus musculus [3] = experiment: Antidiabetic activity in DIO mouse assessed as reduction in plasma insulin level at 10 nmol/kg, ip pretreated with compound and followed by glucose challenge and measured by oral glucose tolerance test; type: functional, organism-based
Mus musculus [4] = experiment: Antidiabetic activity in db/db mouse assessed as reduction in blood glucose at 10 nmol/kg, ip pretreated with compound and followed by glucose challenge and measured by oral glucose tolerance test; type: functional, organism-based
Mus musculus [5] = experiment: Antidiabetic activity in overnight fasted male C57BL/6J mouse at 10 nmol/kg, ip administered at -30 mins and measured by oral glucose tolerance test; type: functional, organism-based
Mus musculus [6] = experiment: Antidiabetic activity in male DIO mouse assessed as reduction in acute food intake at 10 nmol/kg, sc measured at 24 hrs post administration; type: functional, organism-based
Mus musculus [7] = experiment: Antidiabetic activity in overnight fasted male C57BL/6J mouse assessed as reduction in acute food intake at 30 nmol/kg, sc administered at -0.5 hrs; type: functional, organism-based
Rattus norvegicus [8] = experiment: Antidiabetic activity in overnight fasted male Sprague-Dawley rat assessed as reduction in food intake at 10 nmol/kg, ip; type: functional; design: scale not given: the % may be the effect or the level left
Rattus norvegicus [9] = experiment: Antidiabetic activity in overnight fasted male Sprague-Dawley rat assessed as reduction in food intake at 100 nmol/kg, ip; type: functional; design: scale not given: the % may be the effect or the level left
[10] = Half-life in male Sprague-Dawley rat at 25 nmol/kg, iv administered as single dose and measured after 24 hrs by LC-MS/MS analysis; type: ADME, organism-based; settings: in vivo
[11] = Half-life in male Sprague-Dawley rat at 25 nmol/kg, sc administered as single dose and measured after 24 hrs by LC-MS/MS analysis; type: ADME, organism-based; settings: in vivo
[12] = MRT in male Sprague-Dawley rat at 25 nmol/kg, sc administered as single dose and measured after 24 hrs by LC-MS/MS analysis; type: ADME, organism-based; settings: in vivo
[13] = AUC (inifinity) in male Sprague-Dawley rat at 25 nmol/kg, sc administered as single dose and measured after 24 hrs by LC-MS/MS analysis; type: ADME, organism-based; design: dose 25 nmol/kg, time 24 hrs, route sc; settings: in vivo
[14] = Toxicity in male DIO mouse assessed as reduction in body weight at 100 nmol/kg, sc administered twice daily for 7 days; type: organism-based; design: scale not given: the % may be the effect or the level left; settings: in vivo, 168 h, time 7 day
[15] = Toxicity in male DIO mouse assessed as change in liver ALT level at 100 nmol/kg, sc administered twice daily for 7 days; type: organism-based; settings: in vivo, 168 h, time 7 day
[16] = Toxicity in male DIO mouse assessed as change in serum lipase at 100 nmol/kg, sc administered twice daily for 7 days; type: organism-based; settings: in vivo, 168 h, time 7 day
[17] = Toxicity in male DIO mouse assessed as change in serum amylase at 100 nmol/kg, sc administered twice daily for 7 days; type: organism-based; settings: in vivo, 168 h, time 7 day
[18] = Toxicity in male db/db mouse assessed as reduction in body weight at 100 nmol/kg, sc administered twice daily for 7 days; type: organism-based; settings: in vivo, 168 h, time 7 day
Mus musculus [19] = experiment: Antidiabetic activity in male db/db mouse assessed as decrease in cumulative food intake at 100 nmol/kg, sc administered twice daily for 7 days; type: functional, organism-based; settings: time 7.0 day
Mus musculus [20] = experiment: Antidiabetic activity in male db/db mouse assessed as decrease in fasted blood glucose at 100 nmol/kg, sc administered twice daily for 7 days; type: functional, organism-based; settings: time 7.0 day
[21] = Toxicity in male db/db mouse assessed as change in liver AST level at 100 nmol/kg, sc administered twice daily for 7 days; type: organism-based; settings: in vivo, 168 h, time 7 day
[22] = Toxicity in male db/db mouse assessed as change in liver ALT level at 100 nmol/kg, sc administered twice daily for 7 days; type: organism-based; settings: in vivo, 168 h, time 7 day
[23] = Toxicity in male db/db mouse assessed as change in Cre at 100 nmol/kg, sc administered twice daily for 7 days; type: organism-based; settings: in vivo, 168 h, time 7 day
[24] = Toxicity in male db/db mouse assessed as change in BUN at 100 nmol/kg, sc administered twice daily for 7 days; type: organism-based; settings: in vivo, 168 h, time 7 day
[25] = Toxicity in male db/db mouse assessed as change in serum lipase at 100 nmol/kg, sc administered twice daily for 7 days; type: organism-based; settings: in vivo, 168 h, time 7 day
[26] = Toxicity in male db/db mouse assessed as change in serum amylase at 100 nmol/kg, sc administered twice daily for 7 days; type: organism-based; settings: in vivo, 168 h, time 7 day
Mus musculus [27] = experiment: Antidiabetic activity in male db/db mouse assessed as reduction in blood glucose level at 30 nmol/kg, sc administered twice daily for 35 days; type: functional, organism-based; settings: time 35.0 day
Mus musculus [28] = experiment: Antidiabetic activity in male db/db mouse assessed as reduction in food consumption at 30 nmol/kg, sc administered twice daily for 35 days; type: functional, organism-based; settings: time 35.0 day
Mus musculus [29] = experiment: Antidiabetic activity in male db/db mouse assessed as decrease in HbA1c level at 30 nmol/kg, sc administered twice daily for 35 days; type: functional, organism-based; settings: time 35.0 day
Mus musculus [30] = experiment: Antidiabetic activity in male db/db mouse assessed as increase in islet area at 30 nmol/kg, sc administered twice daily for 35 days; type: functional, organism-based; settings: time 35.0 day
Mus musculus [31] = experiment: Antidiabetic activity in male db/db mouse assessed as increase in islet number at 30 nmol/kg, sc administered twice daily for 35 days; type: functional, organism-based; settings: time 35.0 day
Mus musculus [32] = experiment: Antidiabetic activity in male db/db mouse assessed as increase in insulin IOD value at 30 nmol/kg, sc administered twice daily for 35 days; type: functional, organism-based; settings: time 35.0 day
[33] = Toxicity in male db/db mouse assessed as change in liver ALT level at 30 nmol/kg, sc administered twice daily for 35 days; type: organism-based; settings: in vivo, 840 h, time 35 day
[34] = Toxicity in male db/db mouse assessed as change in BUN level at 30 nmol/kg, sc administered twice daily for 35 days; type: organism-based; settings: in vivo, 840 h, time 35 day
[35] = Toxicity in male db/db mouse assessed as change in serum lipase level at 30 nmol/kg, sc administered twice daily for 35 days; type: organism-based; settings: in vivo, 840 h, time 35 day
Mus musculus [36] = experiment: Antidiabetic activity in male […] assessed as reduction in food intake at 30 nmol/kg, sc administered twice daily for 3 weeks; type: functional, organism-based
Mus musculus [37] = experiment: Antidiabetic activity in male […] assessed as reduction in fasted glucose level at 30 nmol/kg, sc administered twice daily for 3 weeks; type: functional, organism-based
Mus musculus [38] = experiment: Antidiabetic activity in male […] assessed as increase in plasma insulin level at 30 nmol/kg, sc administered twice daily for 3 weeks; type: functional, organism-based
Mus musculus [39] = experiment: Antidiabetic activity in male […] assessed as decrease in serum total cholesterol level at 30 nmol/kg, sc administered twice daily for 3 weeks; type: functional, organism-based
Mus musculus [40] = experiment: Antidiabetic activity in male […] assessed as decrease in serum LDL-C level at 30 nmol/kg, sc administered twice daily for 3 weeks; type: functional, organism-based
Mus musculus [41] = experiment: Antidiabetic activity in male […] assessed as increase in serum HDL/LDL ratio at 30 nmol/kg, sc administered twice daily for 3 weeks; type: functional, organism-based

Chain of Glucagon receptor (P47871 whole entry): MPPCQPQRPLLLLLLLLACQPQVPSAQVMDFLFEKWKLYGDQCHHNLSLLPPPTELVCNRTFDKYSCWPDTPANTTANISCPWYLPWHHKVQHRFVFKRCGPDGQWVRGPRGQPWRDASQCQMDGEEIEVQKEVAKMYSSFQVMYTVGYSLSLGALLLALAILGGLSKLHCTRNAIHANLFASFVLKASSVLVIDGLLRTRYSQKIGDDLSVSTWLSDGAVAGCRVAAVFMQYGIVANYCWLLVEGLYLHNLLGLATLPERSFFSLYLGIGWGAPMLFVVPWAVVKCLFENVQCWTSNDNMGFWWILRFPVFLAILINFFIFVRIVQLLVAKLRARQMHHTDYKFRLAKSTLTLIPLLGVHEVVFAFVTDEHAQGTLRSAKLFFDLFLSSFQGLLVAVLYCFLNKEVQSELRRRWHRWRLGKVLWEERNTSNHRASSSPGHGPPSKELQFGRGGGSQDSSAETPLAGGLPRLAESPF
Chain of Glucagon-like peptide 1 receptor (P43220 whole entry): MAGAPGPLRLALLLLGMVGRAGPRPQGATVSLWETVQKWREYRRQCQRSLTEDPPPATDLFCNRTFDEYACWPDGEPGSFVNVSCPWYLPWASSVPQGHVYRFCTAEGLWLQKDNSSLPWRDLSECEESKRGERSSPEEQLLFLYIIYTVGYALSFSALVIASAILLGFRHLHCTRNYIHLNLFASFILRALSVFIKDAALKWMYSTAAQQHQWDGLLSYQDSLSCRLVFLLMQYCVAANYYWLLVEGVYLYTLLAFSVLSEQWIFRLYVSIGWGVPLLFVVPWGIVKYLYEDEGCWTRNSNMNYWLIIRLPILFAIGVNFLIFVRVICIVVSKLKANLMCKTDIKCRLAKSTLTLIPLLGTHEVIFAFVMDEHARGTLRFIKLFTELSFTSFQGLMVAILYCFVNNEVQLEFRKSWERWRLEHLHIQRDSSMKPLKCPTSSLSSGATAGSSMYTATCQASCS

CCCCCCCCCCCCCCCC(=O)N[C@@H](CCC(=O)NCCCC[C@H](NC(=O)[C@H](Cc1ccc(O)cc1)NC(=O)[C@H](CCCCN)NC(=O)[C@H](CO)NC(=O)[C@@H](NC(=O)[C@H](CC(=O)O)NC(=O)[C@H](CC(N)=O)NC(=O)[C@@H](NC(=O)[C@H](Cc1ccc(O)cc1)NC(=O)[C@@H](NC(=O)CNC(=O)[C@H](CCC(N)=O)NC(=O)[C@@H](CO)NC(=O)[C@@H](N)Cc1c[nH]cn1)[C@@H](C)O)[C@@H](C)O)C(C)C)C(=O)N[C@@H](CC(=O)O)C(=O)N[C@@H](CO)C(=O)N[C@@H](CCCNC(=N)N)C(=O)N[C@@H](CCCNC(=N)N)C(=O)N[C@@H](C)C(=O)N[C@@H](CCC(N)=O)C(=O)N[C@@H](CC(=O)O)C(=O)N[C@@H](Cc1ccccc1)C(=O)N[C@H](C(=O)N[C@@H](CCC(=O)O)C(=O)N[C@@H](Cc1c[nH]c2ccccc12)C(=O)N[C@@H](CC(C)C)C(=O)N[C@@H](CCCCN)C(=O)N[C@@H](CC(N)=O)C(=O)NCC(=O)NCC(=O)N1CCC[C@H]1C(=O)N[C@@H](CO)C(=O)N[C@@H](CO)C(=O)NCC(=O)N[C@@H](C)C(=O)N1CCC[C@H]1C(=O)N1CCC[C@H]1C(=O)N1CCC[C@H]1C(=O)N[C@@H](CO)C(N)=O)[C@@H](C)CC)C(=O)O
Activity [1]: 132% | EC50 (Glucagon receptor): 0.098 nM | Activity (Mus musculus [2]): Active | Activity (Mus musculus [3]): Active | Activity (Mus musculus [4]): Active | Activity (Mus musculus [5]): Active | Activity (Mus musculus [6]): Active | Activity (Mus musculus [7]): Active | Activity (Rattus norvegicus [8]): 25% | Activity (Rattus norvegicus [9]): 29% | half-life [10]: 2.6 h | half-life [11]: 4 h | MRT [12]: 7.7 h | AUC at 24 h [13]: 4610 ng·h/mL | Activity [14]: 16.3% | Activity [15]: Non-Toxic | Activity [16]: Non-Toxic | Activity [17]: Non-Toxic | Activity [18]: Non-Toxic | Activity (Mus musculus [19]): Active | Activity (Mus musculus [20]): Active | Activity [21]: Non-Toxic | Activity [22]: Non-Toxic | Activity [23]: Non-Toxic | Activity [24]: Non-Toxic | Activity [25]: Non-Toxic | Activity [26]: Non-Toxic | Activity (Mus musculus [27]): Active | Activity (Mus musculus [28]): Active | Activity (Mus musculus [29]): Active | Activity (Mus musculus [30]): Active | Activity (Mus musculus [31]): Active | Activity (Mus musculus [32]): Active | Activity [33]: Non-Toxic | Activity [34]: Non-Toxic | Activity [35]: Non-Toxic | Activity (Mus musculus [36]): Active | Activity (Mus musculus [37]): Active | Activity (Mus musculus [38]): Active | Activity (Mus musculus [39]): Active | Activity (Mus musculus [40]): Active | Activity (Mus musculus [41]): Active
